One compound from patent publication US9750677B2, “Use of metal complexes which are mimetics of SOD as food agents and as cosmetics” (Universitat de València, priority 2014, dated 2017) can be followed below.

This test deals with Medaka embryos. The test can be described thus: Survival analysis using Medaka fish embryos, mortality at 72 hours in H2O2. The class given is in vivo, Medaka (Oryzias latipes). To be noted: stage 8 embryos pre-treated 4 days with 100 μM vitamin C, then 72 hours in 22.5 mM H2O2; for mortality, mean (± standard error in text): 6 replicates. As to the method:
Individual adults (strain Cab, Carolina Biological Supply, (North Carolina)), were held in tanks with continuous water flow at 27° C., and a photoperiod of 14 hours of light and 10 hours of darkness. The fish were fed twice a day with Artemia nauplii, which were hatched daily from commercial Sanders® cysts, and with dry food once per day.
Fertilized eggs were collected daily, deposited in Yamamoto solution (0.13 M NaCl, 2.7 mM KCl, 1.8 mM CaCl2 and 0.24 mM NaHCO3, pH 7.3) (Yamamoto T., Medaka (killifish): Biology and strains. 1975, Tokyo: Keigaku Pub. Co), and were kept in the incubator at 26° C. The embryo stage was determined according to the description of Iwamatsu (Iwamatsu T., Stages of normal development in the medaka Oryzias latipes. Mech Dev. 2004, Vol. 121, pages 605-618).
Medaka embryos that were in stage 8 (early morula stage, Iwamatsu, 2004) were separated into 2 groups of 60 embryos and one group of 30 embryos. A group of 60 embryos were treated for 4 days with Pytren-4Q+Mn dissolved in Yamamoto solution at a concentration of 250 μM. The other group of 60 embryos were incubated for 4 days in Yamamoto solution. This group was used as a negative control. The group of 30 embryos, positive control group, were treated for 4 days with a Yamamoto solution of vitamin C, an antioxidant compound, at a concentration of 100 μM. After 4 days of incubation, the embryos were washed with Yamamoto solution. The groups of 60 embryos were separated one by one into two groups of 30 embryos. The embryos of all the groups were individually placed into the wells of 96-well plates, each well containing 200 μl of Yamamoto solution with H2O2, at different concentrations depending on the extension of incubation time at which mortality was observed. […] Thirty embryos of each initial group of 60 embryos and the 30 embryos of the group treated with vitamin C were treated with H2O2 Yamamoto solution at a concentration of 22.5 mM. […] Thirty embryos of each initial group of 60 embryos were treated with H2O2 Yamamoto solution at a concentration of 7.5 mM. […]

Where “and” joins values, the source holds several entries; their conditions need not be identical. Identical values can stand only once.

As for `O=C1O[C@H]([C@@H](O)CO)C(O)=C1O` [vitamin C], the “mortality, mean (± standard error in text)” value worked out at 25.99±5.25%. In addition, for the setting “listed as Vitamin C”, the “mortality, mean (± standard error in text)” value was determined as 25.99%. Further, the “mortality, single replicates” value (30 embryos per replicate) was 14.3% and 20.8% (2×) and 40.63% and 43.75% and 15.63%.
